Measurements from patent publication US9340590B2 (priority 2011, dated 2016).
Positions of bridges follow the written chain, without caps; N, C: chain ends. Non-standard residues stand in square brackets, D forms with d. Residues, ends and D or L forms follow the SMILES beside them. *: point of attachment. Trp(1-Me) = Cn1cc(C[C@H](N)C(=O)O)c2ccccc21; 2Pal = N[C@@H](Cc1ccccn1)C(=O)O; Pent4ynoyl = C#CCCC(=O)*; Abu = CC[C@H](N)C(=O)O

Columns and labels:
hNav1.7 = hNav1.7 (Homo sapiens, UniProt Q15858); assay: cell-based; conditions: Nav1.7 Use IC50
hNav1.5 = hNav1.5 (Homo sapiens, UniProt Q14524); assay: cell-based
hNav1.5, sequence (Q14524 whole entry, looked up): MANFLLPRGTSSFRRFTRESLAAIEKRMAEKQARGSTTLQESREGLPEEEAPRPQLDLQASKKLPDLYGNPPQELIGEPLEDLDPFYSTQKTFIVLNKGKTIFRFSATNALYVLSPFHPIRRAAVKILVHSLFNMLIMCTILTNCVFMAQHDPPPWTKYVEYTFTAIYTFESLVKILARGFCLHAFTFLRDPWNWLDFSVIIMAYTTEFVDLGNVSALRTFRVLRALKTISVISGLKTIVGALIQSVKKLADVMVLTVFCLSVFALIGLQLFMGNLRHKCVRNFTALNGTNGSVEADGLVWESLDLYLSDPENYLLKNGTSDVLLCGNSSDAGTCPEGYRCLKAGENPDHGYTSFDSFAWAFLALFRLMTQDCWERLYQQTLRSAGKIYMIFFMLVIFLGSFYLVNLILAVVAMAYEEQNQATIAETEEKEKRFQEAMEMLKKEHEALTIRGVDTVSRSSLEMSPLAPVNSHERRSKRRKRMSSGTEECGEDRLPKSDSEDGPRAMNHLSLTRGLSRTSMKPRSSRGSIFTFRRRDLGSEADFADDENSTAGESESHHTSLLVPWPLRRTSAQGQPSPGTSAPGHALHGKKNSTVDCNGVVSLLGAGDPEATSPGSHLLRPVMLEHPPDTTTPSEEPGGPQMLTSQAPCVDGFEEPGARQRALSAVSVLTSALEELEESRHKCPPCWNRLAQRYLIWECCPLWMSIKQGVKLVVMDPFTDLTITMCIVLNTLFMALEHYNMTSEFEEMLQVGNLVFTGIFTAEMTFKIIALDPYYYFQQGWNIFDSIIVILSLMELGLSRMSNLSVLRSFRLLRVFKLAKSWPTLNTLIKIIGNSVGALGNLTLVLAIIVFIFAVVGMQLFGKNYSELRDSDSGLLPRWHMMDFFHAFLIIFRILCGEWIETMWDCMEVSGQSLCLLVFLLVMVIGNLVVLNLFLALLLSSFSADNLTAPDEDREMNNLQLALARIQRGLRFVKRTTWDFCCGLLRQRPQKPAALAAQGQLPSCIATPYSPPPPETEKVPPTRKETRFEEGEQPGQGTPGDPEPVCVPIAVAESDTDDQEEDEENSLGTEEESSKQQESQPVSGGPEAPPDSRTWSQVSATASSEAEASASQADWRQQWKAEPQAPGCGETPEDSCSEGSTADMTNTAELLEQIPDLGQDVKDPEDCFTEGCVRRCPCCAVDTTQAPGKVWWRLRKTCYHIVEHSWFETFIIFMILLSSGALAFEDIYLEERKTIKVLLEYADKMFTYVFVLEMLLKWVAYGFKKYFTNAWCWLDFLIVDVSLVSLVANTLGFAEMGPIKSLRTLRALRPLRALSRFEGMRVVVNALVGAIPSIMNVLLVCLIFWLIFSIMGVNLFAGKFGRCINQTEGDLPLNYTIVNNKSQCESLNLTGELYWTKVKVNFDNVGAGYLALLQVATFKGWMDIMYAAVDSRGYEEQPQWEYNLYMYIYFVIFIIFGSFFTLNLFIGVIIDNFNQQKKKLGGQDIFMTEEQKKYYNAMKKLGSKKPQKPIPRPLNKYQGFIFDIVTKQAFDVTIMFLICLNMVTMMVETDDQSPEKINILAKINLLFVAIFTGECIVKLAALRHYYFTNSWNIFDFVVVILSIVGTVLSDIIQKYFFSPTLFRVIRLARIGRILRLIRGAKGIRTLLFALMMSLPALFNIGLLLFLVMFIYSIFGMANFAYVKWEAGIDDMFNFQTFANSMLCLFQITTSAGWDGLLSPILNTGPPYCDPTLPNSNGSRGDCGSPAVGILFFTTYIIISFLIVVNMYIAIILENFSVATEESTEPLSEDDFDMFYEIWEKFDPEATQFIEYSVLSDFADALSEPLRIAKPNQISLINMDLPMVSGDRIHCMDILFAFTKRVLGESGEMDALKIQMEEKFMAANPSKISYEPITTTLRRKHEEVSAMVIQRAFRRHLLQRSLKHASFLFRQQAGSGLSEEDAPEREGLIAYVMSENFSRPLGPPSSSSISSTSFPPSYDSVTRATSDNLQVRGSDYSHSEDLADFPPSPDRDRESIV

hNav1.7, sequence (Q15858 whole entry, looked up): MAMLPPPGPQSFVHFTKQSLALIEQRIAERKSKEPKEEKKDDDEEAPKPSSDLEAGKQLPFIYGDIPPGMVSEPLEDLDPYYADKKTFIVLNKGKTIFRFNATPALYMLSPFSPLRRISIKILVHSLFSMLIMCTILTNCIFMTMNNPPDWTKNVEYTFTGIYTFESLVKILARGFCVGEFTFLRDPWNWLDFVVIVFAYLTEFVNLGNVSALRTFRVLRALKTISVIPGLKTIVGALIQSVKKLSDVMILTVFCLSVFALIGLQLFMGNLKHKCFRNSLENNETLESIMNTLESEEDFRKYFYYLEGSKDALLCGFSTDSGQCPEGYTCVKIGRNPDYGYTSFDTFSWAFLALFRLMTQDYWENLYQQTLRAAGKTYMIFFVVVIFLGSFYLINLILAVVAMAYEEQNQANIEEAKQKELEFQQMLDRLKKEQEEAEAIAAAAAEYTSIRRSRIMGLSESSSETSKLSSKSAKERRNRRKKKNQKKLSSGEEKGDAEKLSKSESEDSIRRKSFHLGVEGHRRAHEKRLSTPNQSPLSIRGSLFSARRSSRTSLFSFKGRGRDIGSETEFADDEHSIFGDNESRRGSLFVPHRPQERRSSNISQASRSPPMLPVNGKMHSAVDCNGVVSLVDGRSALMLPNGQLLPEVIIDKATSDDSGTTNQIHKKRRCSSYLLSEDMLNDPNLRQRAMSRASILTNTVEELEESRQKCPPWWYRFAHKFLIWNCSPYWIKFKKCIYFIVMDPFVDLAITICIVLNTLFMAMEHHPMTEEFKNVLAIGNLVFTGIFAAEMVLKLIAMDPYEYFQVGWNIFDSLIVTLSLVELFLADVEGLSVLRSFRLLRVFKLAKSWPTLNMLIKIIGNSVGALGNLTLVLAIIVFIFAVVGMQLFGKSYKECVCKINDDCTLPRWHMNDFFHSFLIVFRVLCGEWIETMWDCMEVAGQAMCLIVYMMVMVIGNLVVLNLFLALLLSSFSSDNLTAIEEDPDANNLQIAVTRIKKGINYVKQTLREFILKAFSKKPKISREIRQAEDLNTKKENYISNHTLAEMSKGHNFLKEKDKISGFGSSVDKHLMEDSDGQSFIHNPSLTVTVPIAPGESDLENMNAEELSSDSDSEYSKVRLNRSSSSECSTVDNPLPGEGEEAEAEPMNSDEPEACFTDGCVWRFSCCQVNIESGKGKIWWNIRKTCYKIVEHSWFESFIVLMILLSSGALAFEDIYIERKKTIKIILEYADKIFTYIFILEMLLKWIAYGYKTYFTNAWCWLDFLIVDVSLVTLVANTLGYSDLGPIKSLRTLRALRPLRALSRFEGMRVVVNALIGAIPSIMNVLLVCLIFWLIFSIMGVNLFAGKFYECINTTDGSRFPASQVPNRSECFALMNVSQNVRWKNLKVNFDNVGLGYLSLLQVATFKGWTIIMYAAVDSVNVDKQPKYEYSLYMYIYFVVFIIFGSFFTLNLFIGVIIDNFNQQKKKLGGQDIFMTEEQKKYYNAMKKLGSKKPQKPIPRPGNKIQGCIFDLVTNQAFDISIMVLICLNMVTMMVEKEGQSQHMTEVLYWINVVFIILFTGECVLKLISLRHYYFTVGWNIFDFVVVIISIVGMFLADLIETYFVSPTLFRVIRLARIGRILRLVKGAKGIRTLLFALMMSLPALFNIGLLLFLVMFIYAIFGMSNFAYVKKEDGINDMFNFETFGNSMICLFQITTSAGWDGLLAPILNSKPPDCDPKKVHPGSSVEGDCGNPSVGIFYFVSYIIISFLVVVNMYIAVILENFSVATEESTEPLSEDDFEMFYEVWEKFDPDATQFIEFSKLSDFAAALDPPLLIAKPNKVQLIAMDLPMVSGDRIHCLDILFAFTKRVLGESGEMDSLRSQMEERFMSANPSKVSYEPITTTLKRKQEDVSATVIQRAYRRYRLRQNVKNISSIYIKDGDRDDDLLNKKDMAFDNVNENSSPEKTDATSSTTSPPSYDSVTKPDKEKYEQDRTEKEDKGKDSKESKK

CC[C@H](C)[C@@H]1NC(=O)[C@@H]2CSSC[C@@H]3NC(=O)[C@H](C(C)C)NC(=O)[C@H](CC(C)C)NC(=O)[C@H](CC(N)=O)NC(=O)[C@@H]4CCCN4C(=O)[C@H](CCCNC(=N)N)NC(=O)[C@H](CSSC[C@H](NC(=O)[C@@H](N)CC(=O)O)C(=O)N[C@@H](CC(C)C)C(=O)NCC(=O)N[C@@H](Cc4ccccc4)C(=O)N[C@@H](CCSC)C(=O)N[C@@H](CCCNC(=N)N)C(=O)N[C@@H](CCCCN)C(=O)N2)NC(=O)[C@H](CSSC[C@@H](C(=O)N[C@@H](CCCCN)C(=O)N[C@@H](Cc2ccc(O)cc2)C(=O)N[C@@H](Cc2ccccn2)C(=O)N[C@@H](Cc2ccccc2)C(N)=O)NC(=O)[C@H](Cc2c[nH]c4ccccc24)NC(=O)[C@H](CCCCN)NC(=O)[C@H](Cc2c[nH]cn2)NC(=O)[C@H]([C@@H](C)O)NC(=O)[C@H](CCCNC(=N)N)NC(=O)[C@H](CO)NC3=O)NC(=O)[C@H](CCCCN)NC(=O)[C@H](CC(=O)O)NC(=O)[C@H](CC(N)=O)NC(=O)[C@H](CC(=O)O)NC(=O)[C@@H]2CCCN2C1=O [[2PAL33]GpTx-1(1-34)] (H-DCLGFMRKCIPDNDKCCRPNLVCSRTHKWCKY[2Pal]F-NH2; disulfide 2-17, 9-23, 16-30)
IC50 (hNav1.7): 10 nM
IC50 (hNav1.5): 3460 nM

CC[C@H](C)[C@@H]1NC(=O)[C@@H]2CSSC[C@@H]3NC(=O)[C@H](C(C)C)NC(=O)[C@H](CC(C)C)NC(=O)[C@H](CC(N)=O)NC(=O)[C@@H]4CCCN4C(=O)[C@H](CCCNC(=N)N)NC(=O)[C@H](CSSC[C@H](NC(=O)[C@@H](N)CC(=O)O)C(=O)N[C@@H](CC(C)C)C(=O)NCC(=O)N[C@@H](C)C(=O)N[C@@H](CCSC)C(=O)N[C@@H](CCCNC(=N)N)C(=O)N[C@@H](CCCCN)C(=O)N2)NC(=O)[C@H](CSSC[C@@H](C(=O)N[C@@H](CCCCN)C(=O)N[C@@H](Cc2cn(C)c4ccccc24)C(=O)N[C@H](C(=O)N[C@@H](Cc2ccccc2)C(N)=O)C(C)C)NC(=O)[C@H](Cc2c[nH]c4ccccc24)NC(=O)[C@H](CCCCN)NC(=O)[C@H](Cc2c[nH]cn2)NC(=O)[C@H]([C@@H](C)O)NC(=O)[C@H](CCCNC(=N)N)NC(=O)[C@H](CO)NC3=O)NC(=O)[C@H](CCCCN)NC(=O)[C@H](CC(=O)O)NC(=O)[C@H](CC(N)=O)NC(=O)[C@H](CC(=O)O)NC(=O)[C@@H]2CCCN2C1=O [[Ala5;1′NMeW32]GpTx-1(1-34)] (H-DCLGAMRKCIPDNDKCCRPNLVCSRTHKWCK[Trp(1-Me)]VF-NH2; disulfide 2-17, 9-23, 16-30)
IC50 (hNav1.7): 18 nM
IC50 (hNav1.5): > 10000 nM

CC[C@H](C)[C@@H]1NC(=O)[C@@H]2CSSC[C@@H]3NC(=O)[C@H](C(C)C)NC(=O)[C@H](CC(C)C)NC(=O)[C@H](CC(N)=O)NC(=O)[C@@H]4CCCN4C(=O)[C@H](Cc4ccccn4)NC(=O)[C@H](CSSC[C@H](NC(=O)[C@@H](N)CC(=O)O)C(=O)N[C@@H](CC(C)C)C(=O)NCC(=O)N[C@@H](Cc4ccccc4)C(=O)N[C@@H](CCSC)C(=O)N[C@@H](CCCNC(=N)N)C(=O)N[C@@H](CCCCN)C(=O)N2)NC(=O)[C@H](CSSC[C@@H](C(=O)N[C@@H](CCCCN)C(=O)N[C@@H](Cc2ccc(O)cc2)C(=O)N[C@H](C(=O)N[C@@H](Cc2ccccc2)C(N)=O)C(C)C)NC(=O)[C@H](Cc2c[nH]c4ccccc24)NC(=O)[C@H](CCCCN)NC(=O)[C@H](Cc2cnc[nH]2)NC(=O)[C@H]([C@@H](C)O)NC(=O)[C@H](CCCNC(=N)N)NC(=O)[C@H](CO)NC3=O)NC(=O)[C@H](CCCCN)NC(=O)[C@H](CC(=O)O)NC(=O)[C@H](CC(N)=O)NC(=O)[C@H](CC(=O)O)NC(=O)[C@@H]2CCCN2C1=O [[2PAL18]GpTx-1(1-34)] (H-DCLGFMRKCIPDNDKCC[2Pal]PNLVCSRTHKWCKYVF-NH2; disulfide 2-17, 9-23, 16-30)
IC50 (hNav1.7): 3 nM
IC50 (hNav1.5): 13700 nM

C#CCCC(=O)N[C@@H](CC(=O)O)C(=O)N[C@H]1CSSC[C@@H]2NC(=O)[C@@H]3CSSC[C@@H](C(=O)N[C@@H](CCCCN)C(=O)N[C@@H](Cc4ccc(O)cc4)C(=O)N[C@H](C(=O)N[C@@H](Cc4ccccc4)C(N)=O)C(C)C)NC(=O)[C@H](Cc4c[nH]c5ccccc45)NC(=O)[C@H](CCCNC(=N)N)NC(=O)[C@H](Cc4c[nH]cn4)NC(=O)[C@H]([C@@H](C)O)NC(=O)[C@H](CCCNC(=N)N)NC(=O)[C@H](CO)NC(=O)[C@H](CSSC[C@H](NC(=O)[C@H](CCCCN)NC(=O)[C@H](CCCNC(=N)N)NC(=O)[C@H](CC(C)C)NC(=O)[C@H](CC)NC(=O)CNC(=O)[C@H](CC(C)C)NC1=O)C(=O)N[C@@H]([C@@H](C)CC)C(=O)N1CCC[C@H]1C(=O)N[C@@H](CC(=O)O)C(=O)N[C@@H](CC)C(=O)N[C@@H](CC(=O)O)C(=O)N[C@@H](CCCCN)C(=O)N3)NC(=O)[C@H](C(C)C)NC(=O)[C@H](CC(C)C)NC(=O)[C@H](CC(N)=O)NC(=O)[C@@H]1CCCN1C(=O)[C@H](CCCNC(=N)N)NC2=O [4-Pen-[2-Abu5,13;Leu6;Arg28]GpTx-1(1-34)] (Pent4ynoyl-DCLG[Abu]LRKCIPD[Abu]DKCCRPNLVCSRTHRWCKYVF-NH2; disulfide 2-17, 9-23, 16-30)
IC50 (hNav1.7): 3 nM
IC50 (hNav1.5): > 10000 nM

CC[C@H](C)[C@@H]1NC(=O)[C@@H]2CSSC[C@@H]3NC(=O)[C@H](C(C)C)NC(=O)[C@H](CC(C)C)NC(=O)[C@H](CC(N)=O)NC(=O)[C@@H]4CCCN4C(=O)[C@H](CCCNC(=N)N)NC(=O)[C@H](CSSC[C@H](NC(=O)[C@@H](N)CC(=O)O)C(=O)N[C@@H](CC(C)C)C(=O)NCC(=O)N[C@@H](C)C(=O)N[C@@H](CCSC)C(=O)N[C@@H](CCCNC(=N)N)C(=O)N[C@@H](CCCCN)C(=O)N2)NC(=O)[C@H](CSSC[C@@H](C(=O)N[C@@H](CCCCN)C(=O)N[C@@H](Cc2ccc(O)cc2)C(=O)N[C@H](C(=O)N[C@@H](Cc2ccccc2)C(N)=O)C(C)C)NC(=O)[C@H](Cc2c[nH]c4ccccc24)NC(=O)[C@H](CCC(=O)O)NC(=O)[C@H](Cc2c[nH]cn2)NC(=O)[C@H]([C@@H](C)O)NC(=O)[C@H](CCCNC(=N)N)NC(=O)[C@H](CO)NC3=O)NC(=O)[C@H](CCCCN)NC(=O)[C@H](CC(=O)O)NC(=O)[C@H](CC(N)=O)NC(=O)[C@H](CC(=O)O)NC(=O)[C@@H]2CCCN2C1=O [[Ala5;Glu28]GpTx-1(1-34)]
IC50 (hNav1.7): 614 nM
IC50 (hNav1.5): > 10000 nM

CC[C@H](C)[C@@H]1NC(=O)[C@@H]2CSSC[C@@H]3NC(=O)[C@H](C(C)C)NC(=O)[C@H](CC(C)C)NC(=O)[C@H](CC(N)=O)NC(=O)[C@@H]4CCCN4C(=O)[C@H](CCCNC(=N)N)NC(=O)[C@H](CSSC[C@H](NC(=O)[C@@H](N)CC(=O)O)C(=O)N[C@@H](CC(C)C)C(=O)NCC(=O)N[C@@H](Cc4ccccc4)C(=O)N[C@@H](CCSC)C(=O)N[C@@H](CCCNC(=N)N)C(=O)N[C@@H](CCCCN)C(=O)N2)NC(=O)[C@H](CSSC[C@@H](C(=O)N[C@@H](CCCCN)C(=O)N[C@@H](Cc2ccc(O)cc2)C(=O)N[C@H](C(=O)N[C@@H](Cc2ccccc2)C(N)=O)C(C)C)NC(=O)[C@H](Cc2c[nH]c4ccccc24)NC(=O)[C@H](CCCCN)NC(=O)[C@H](Cc2cnc[nH]2)NC(=O)[C@H](Cc2cnc[nH]2)NC(=O)[C@H](CCCNC(=N)N)NC(=O)[C@H](CO)NC3=O)NC(=O)[C@H](CCCCN)NC(=O)[C@H](CC(=O)O)NC(=O)[C@H](CC(N)=O)NC(=O)[C@H](CC(=O)O)NC(=O)[C@@H]2CCCN2C1=O [[His26]GpTx-1(1-34)] (H-DCLGFMRKCIPDNDKCCRPNLVCSRHHKWCKYVF-NH2; disulfide 2-17, 9-23, 16-30)
IC50 (hNav1.7): 3 nM
IC50 (hNav1.5): 4950 nM

CC[C@H](C)[C@@H]1NC(=O)[C@@H]2CSSC[C@@H]3NC(=O)[C@H](Cc4c[nH]c5ccccc45)NC(=O)[C@H](CC(C)C)NC(=O)[C@H](CC(N)=O)NC(=O)[C@@H]4CCCN4C(=O)[C@H](CCCNC(=N)N)NC(=O)[C@H](CSSC[C@H](NC(=O)[C@@H](N)CC(=O)O)C(=O)N[C@@H](CC(C)C)C(=O)NCC(=O)N[C@@H](Cc4ccccc4)C(=O)N[C@@H](CCSC)C(=O)N[C@@H](CCCNC(=N)N)C(=O)N[C@@H](CCCCN)C(=O)N2)NC(=O)[C@H](CSSC[C@@H](C(=O)N[C@@H](CCCCN)C(=O)N[C@@H](Cc2ccc(O)cc2)C(=O)N[C@H](C(=O)N[C@@H](Cc2ccccc2)C(N)=O)C(C)C)NC(=O)[C@H](Cc2c[nH]c4ccccc24)NC(=O)[C@H](CCCCN)NC(=O)[C@H](Cc2cnc[nH]2)NC(=O)[C@H]([C@@H](C)O)NC(=O)[C@H](CCCNC(=N)N)NC(=O)[C@H](CO)NC3=O)NC(=O)[C@H](CCCCN)NC(=O)[C@H](CC(=O)O)NC(=O)[C@H](CC(N)=O)NC(=O)[C@H](CC(=O)O)NC(=O)[C@@H]2CCCN2C1=O [[Trp22]GpTx-1(1-34)] (H-DCLGFMRKCIPDNDKCCRPNLWCSRTHKWCKYVF-NH2; disulfide 2-17, 9-23, 16-30)
IC50 (hNav1.7): 39 nM
IC50 (hNav1.5): 4780 nM

CC(C)C[C@@H]1NC(=O)[C@@H](NC(=O)[C@@H](N)CC(=O)O)CSSC[C@@H]2NC(=O)[C@@H]3CSSC[C@@H](C(=O)N[C@@H](CCCCN)C(=O)N[C@@H](Cc4ccc(O)cc4)C(=O)N[C@H](C(=O)N[C@@H](Cc4ccccc4)C(N)=O)C(C)C)NC(=O)[C@H](Cc4c[nH]c5ccccc45)NC(=O)[C@H](CCCCN)NC(=O)[C@H](Cc4c[nH]cn4)NC(=O)[C@H]([C@@H](C)O)NC(=O)[C@H](CCCNC(=N)N)NC(=O)[C@H](CO)NC(=O)[C@H](CSSC[C@H](NC(=O)[C@H](CCCCN)NC(=O)[C@H](CCCNC(=N)N)NC(=O)[C@H](Cc4ccccc4)NC(=O)[C@H](C)NC(=O)CNC1=O)C(=O)N[C@@H](CCC(=O)O)C(=O)N1CCC[C@H]1C(=O)N[C@@H](CC(=O)O)C(=O)N[C@@H](CC(N)=O)C(=O)N[C@@H](CC(=O)O)C(=O)N[C@@H](CCCCN)C(=O)N3)NC(=O)[C@H](C(C)C)NC(=O)[C@H](CC(C)C)NC(=O)[C@H](CC(N)=O)NC(=O)[C@@H]1CCCN1C(=O)[C@H](CCCNC(=N)N)NC2=O [[Ala5;Phe6;Glu10]GpTx-1(1-34)] (H-DCLGAFRKCEPDNDKCCRPNLVCSRTHKWCKYVF-NH2; disulfide 2-17, 9-23, 16-30)
IC50 (hNav1.7): 79 nM
IC50 (hNav1.5): > 10000 nM
